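Following 48 hours of exposure in 96-well plates, responses at five concentrations were used to interpolate endpoints linearly. Abbreviation: GI50, concentration required for 50% inhibition of growth.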 Activity calls are given as the source filed them. Cut-off read from the data, not from the text of the source: active = GI50 up to about 1.1 µM and inactive = higher.
Tests used:
Assay in all cases: NCI anticancer screen, dose series, 48 h
[1] = tested on: 786-0
[2] = tested on: A498
[3] = tested on: A549
[4] = tested on: ACHN
[5] = tested on: CAKI-1
[6] = tested on: CCRF-CEM
[7] = tested on: COLO 205
[8] = tested on: DLD-1
[9] = tested on: DMS-114
[10] = tested on: DMS-273
[11] = tested on: EKVX
[12] = tested on: HCC 2998
[13] = tested on: HCT-116
[14] = tested on: HCT-15
[15] = tested on: HL-60
[16] = tested on: HOP-18
[17] = tested on: HOP-92
[18] = tested on: HT-29
[19] = tested on: IGROV-1
[20] = tested on: K562
[21] = tested on: KM-20L2
[22] = tested on: KM12
[23] = tested on: LOX IMVI
[24] = tested on: LXFL 529
[25] = tested on: M14
[26] = tested on: M19-MEL
[27] = tested on: MOLT-4
[28] = tested on: Malme-3M
[29] = tested on: NCI-H226
[30] = tested on: NCI-H23
[31] = tested on: NCI-H460
[32] = tested on: NCI-H522
[33] = tested on: OVCAR-3
[34] = tested on: OVCAR-4
[35] = tested on: OVCAR-5
[36] = tested on: OVCAR-8
[37] = tested on: RXF 631
[38] = tested on: SF-268
[39] = tested on: SF-295
[40] = tested on: SF-539
[41] = tested on: SK-MEL-28
[42] = tested on: SK-MEL-2
[43] = tested on: SK-MEL-5
[44] = tested on: SK-OV-3
[45] = tested on: SN12C
[46] = tested on: SNB-19
[47] = tested on: SNB-75
[48] = tested on: SNB-78
[49] = tested on: SR
[50] = tested on: SW-620
[51] = tested on: TK-10
[52] = tested on: U-251
[53] = tested on: UACC-257
[54] = tested on: UACC-62
[55] = tested on: UO-31
[56] = tested on: HOP-62
[57] = tested on: RPMI-8226
[58] = tested on: RXF 393
[59] = tested on: XF498

Measured: GI50

O=C(O)CCC1c2[nH]c3ccccc3c2CCN1Cc1ccccc1 (stereo not drawn)
> 100 µM: [14]
inactive: [1] > 100 µM | [2] > 100 µM | [3] > 100 µM | [4] > 100 µM | [5] > 100 µM | [6] > 100 µM | [7] > 100 µM | [8] > 100 µM | [9] > 100 µM | [10] > 100 µM | [11] > 100 µM | [12] > 100 µM | [13] > 100 µM | [15] > 100 µM | [16] > 100 µM | [17] > 100 µM | [18] > 100 µM | [19] > 100 µM | [20] > 100 µM | [21] > 100 µM | [22] > 100 µM | [23] > 100 µM | [24] > 100 µM | [25] > 100 µM | [26] > 100 µM | [27] > 100 µM | [28] > 100 µM | [29] > 100 µM | [30] > 100 µM | [31] > 100 µM | [32] > 100 µM | [33] > 100 µM | [34] > 100 µM | [35] > 100 µM | [36] > 100 µM | [37] > 100 µM | [38] > 100 µM | [39] > 100 µM | [40] > 100 µM | [41] > 100 µM | [42] > 100 µM | [43] > 100 µM | [44] > 100 µM | [45] > 100 µM | [46] > 100 µM | [47] > 100 µM | [48] > 100 µM | [49] > 100 µM | [50] > 100 µM | [51] > 100 µM | [52] > 100 µM | [53] > 100 µM | [54] > 100 µM | [55] > 100 µM

COc1ccc(-c2cc(O)c3ccc(F)cc3n2)cc1
inactive: [1] > 100 µM | [3] > 100 µM | [4] > 100 µM | [6] > 100 µM | [7] > 100 µM | [8] > 100 µM | [9] > 100 µM | [11] > 100 µM | [12] > 100 µM | [13] > 100 µM | [15] > 100 µM | [16] > 100 µM | [56] > 100 µM | [17] > 100 µM | [18] > 100 µM | [19] > 100 µM | [20] > 100 µM | [21] > 100 µM | [22] 77.4 µM | [23] > 100 µM | [24] > 100 µM | [25] > 100 µM | [26] > 100 µM | [27] > 100 µM | [28] > 100 µM | [29] > 100 µM | [30] > 100 µM | [31] > 100 µM | [32] > 100 µM | [33] > 100 µM | [34] > 100 µM | [35] > 100 µM | [36] > 100 µM | [57] > 100 µM | [58] > 100 µM | [37] > 100 µM | [38] 23.5 µM | [39] > 100 µM | [40] > 100 µM | [41] > 100 µM | [43] > 100 µM | [44] > 100 µM | [45] > 100 µM | [46] > 100 µM | [47] > 100 µM | [48] > 100 µM | [49] > 100 µM | [50] > 100 µM | [51] > 100 µM | [53] > 100 µM | [54] > 100 µM | [55] > 100 µM | [59] > 100 µM

CC12CCC3(OCCO3)C(OC(=O)c3ccccc3)=C1CCC21OCCO1 (stereo not drawn)
> 100 µM: [14]
inactive: [1] > 100 µM | [2] > 100 µM | [3] > 100 µM | [4] > 100 µM | [5] > 100 µM | [6] > 100 µM | [7] 63.1 µM | [8] > 100 µM | [9] > 100 µM | [10] > 100 µM | [11] > 100 µM | [12] > 100 µM | [13] > 100 µM | [15] > 100 µM | [16] > 100 µM | [56] > 100 µM | [17] > 100 µM | [18] > 100 µM | [19] > 100 µM | [21] > 100 µM | [22] > 100 µM | [23] > 100 µM | [24] > 100 µM | [25] > 100 µM | [26] > 100 µM | [27] > 100 µM | [28] > 100 µM | [29] 4.7 µM | [31] > 100 µM | [32] > 100 µM | [33] > 100 µM | [34] > 100 µM | [35] > 100 µM | [36] > 100 µM | [57] 71.3 µM | [58] > 100 µM | [37] > 100 µM | [38] > 100 µM | [39] > 100 µM | [40] > 100 µM | [41] > 100 µM | [43] > 100 µM | [44] > 100 µM | [45] > 100 µM | [46] > 100 µM | [47] > 100 µM | [48] > 100 µM | [49] > 100 µM | [50] > 100 µM | [51] > 100 µM | [52] > 100 µM | [53] > 100 µM | [54] > 100 µM | [55] > 100 µM

Reference: ChEMBL document CHEMBL1201862, “PubChem BioAssay data set” (2004)
